# Reference: ChEMBL document CHEMBL1201862, “PubChem BioAssay data set” (2004)
# Activity calls are given as the source filed them.
# Tested on: not listed separately
# Test: Luminescence Cell-Based Dose Response HTS to Identify Activators of Luciferase Translation or Activity in H4 […] Cells. [Related pubchem assays: 1829 (Project Summary), 1814 (Primary HTS)]
# Format: functional
# Settings: not given
row,Compound,EC50
1,NC(=O)c1ccccc1/N=C/c1ccc2ccccc2c1,1.14 µM (active)

# Tested on: H4
# Test: Luminescence Cell-Based Dose Response HTS to Identify Activators of 5'UTR Stem-Loop Driven Prion Protein mRNA Translation in H4 Neuroglioblastoma Cells. [Related pubchem assays: 1829 (Project Summary), 1814 (Primary HTS)]
# Format: functional
# Settings: Homo sapiens
row,Compound,EC50
1,NC(=O)c1ccccc1/N=C/c1ccc2ccccc2c1,0.197 µM (active)

# Target: Large T antigen (Simian virus 40, UniProt P03070);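 note: Confirmatory-stage PubChem screen for compounds that inhibit SV40 T antigen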
# Sequence (P03070 whole entry): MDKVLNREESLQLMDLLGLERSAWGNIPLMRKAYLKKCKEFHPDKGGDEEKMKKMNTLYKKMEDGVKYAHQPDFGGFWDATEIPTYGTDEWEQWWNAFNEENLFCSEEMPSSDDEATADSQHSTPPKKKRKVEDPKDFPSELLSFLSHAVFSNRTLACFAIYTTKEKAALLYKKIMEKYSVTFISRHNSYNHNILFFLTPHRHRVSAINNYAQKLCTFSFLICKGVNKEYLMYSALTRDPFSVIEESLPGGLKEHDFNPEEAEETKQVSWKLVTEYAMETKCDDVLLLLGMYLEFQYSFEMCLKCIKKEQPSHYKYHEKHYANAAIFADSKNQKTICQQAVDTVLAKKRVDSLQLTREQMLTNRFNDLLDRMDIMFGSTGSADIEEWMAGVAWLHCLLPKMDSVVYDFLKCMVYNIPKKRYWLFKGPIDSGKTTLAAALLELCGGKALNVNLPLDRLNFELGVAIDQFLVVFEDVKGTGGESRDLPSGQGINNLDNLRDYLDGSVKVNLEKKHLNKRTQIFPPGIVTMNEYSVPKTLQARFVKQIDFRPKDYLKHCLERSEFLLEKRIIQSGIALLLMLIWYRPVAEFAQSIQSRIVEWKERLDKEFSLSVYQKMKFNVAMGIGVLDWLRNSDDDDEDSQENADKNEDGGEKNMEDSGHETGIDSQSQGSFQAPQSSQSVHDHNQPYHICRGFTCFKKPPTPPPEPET
# Test: not given
# Format: functional, Betapolyomavirus macacae
# Settings: not given
row,Compound,IC50
1,CN(C)c1ccc(NC(=O)c2ccc(N3CCOCC3)nc2)cc1,6.98 µM (active)
2,Cc1ccc(S(=O)(=O)Cc2cc(F)c([N+](=O)[O-])cc2[N+](=O)[O-])cc1,4.86 µM (active)
3,CCNC(S)=Nc1cc(OCC)c(N2CCOCC2)cc1OCC,> 100 µM (active)
4,CN(C)c1ccc(NC(=O)CSc2nc3c(c(=O)[nH]2)CCCC3)cc1,5.87 µM (active)
5,COc1cc(/C=N/Nc2nc(N3CCCC3)nc(N3CCCC3)n2)ccc1O,15.2 µM (active)
6,CC(C)(C)n1nnnc1C(c1ccncc1)N1CCN(c2ccc(O)cc2)CC1 (centres undefined),13.9 µM (active)

# Target: Eukaryotic translation initiation factor 4E (Mus musculus, UniProt P63073)
# Sequence (P63073 whole entry): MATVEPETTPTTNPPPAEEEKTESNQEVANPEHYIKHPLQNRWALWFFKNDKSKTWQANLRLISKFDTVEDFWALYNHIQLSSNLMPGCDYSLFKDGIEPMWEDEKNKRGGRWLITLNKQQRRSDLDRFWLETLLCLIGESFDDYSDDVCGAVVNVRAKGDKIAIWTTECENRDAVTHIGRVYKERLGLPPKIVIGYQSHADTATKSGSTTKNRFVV
# Test: eIF4E–eIF4G protein interaction inhibitors, dose response, biochemical, TR-FRET (AID 855);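 note: potency for disrupting eIF4E binding to eIF4GI seen as loss of FRET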
# Format: functional
# Settings: not given
row,Compound,IC50
1,Sc1nnc(-c2ccco2)n1/N=C/c1ccc(Br)s1,> 64 µM (inactive)
2,O=C(CSc1nnc(-c2ccccc2)n1C1CCCCC1)Nc1ccc(S(=O)(=O)Nc2ccccn2)cc1,> 64 µM (inactive)
3,Cc1cc(N2CCOCC2)n2nc(C)c(-c3ccccc3)c2n1,> 64 µM (inactive)
4,O=C1CN(C(=O)c2cccs2)c2ccccc2N1,> 64 µM (inactive)

# Target: T1, Heat shock factor protein 1 (Mus musculus, UniProt P38532)
# T1 sequence (P38532 whole entry): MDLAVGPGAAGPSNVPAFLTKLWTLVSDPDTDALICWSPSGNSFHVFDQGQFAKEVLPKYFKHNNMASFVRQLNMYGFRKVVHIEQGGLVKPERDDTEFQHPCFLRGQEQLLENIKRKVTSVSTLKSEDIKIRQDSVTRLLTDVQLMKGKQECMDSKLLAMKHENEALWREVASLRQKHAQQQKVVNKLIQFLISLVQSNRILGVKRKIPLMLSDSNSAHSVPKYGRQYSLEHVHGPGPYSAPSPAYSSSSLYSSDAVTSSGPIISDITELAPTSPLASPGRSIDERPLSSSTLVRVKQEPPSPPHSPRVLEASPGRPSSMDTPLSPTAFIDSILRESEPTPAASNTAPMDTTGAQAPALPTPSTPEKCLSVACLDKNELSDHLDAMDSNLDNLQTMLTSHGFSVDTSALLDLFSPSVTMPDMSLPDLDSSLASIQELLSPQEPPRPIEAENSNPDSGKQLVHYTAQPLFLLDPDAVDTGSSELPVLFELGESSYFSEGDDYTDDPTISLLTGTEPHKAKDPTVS
# Test: HSF1 potentiators in luciferase reporter cells, confirmation, cell-based, NIH3T3, luminescence, dose retest (AID 435004);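 note: stress induced by proteasome inhibitor MG132 added 30 min after compound; luciferase reporter driven by HSF1 response element in NIH3T3 cells; actives raise luminescence as potentiators of the MG132 stress response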
# Format: functional
# Settings: not given
row,Compound,EC50
1,CCc1ccccc1NC1=NCC(=O)N1C1CCCCC1,> 260 µM (inactive)
2,COc1ccc(S(=O)(=O)N2CCC(C(=O)NCc3cccnc3)CC2)cc1C,> 260 µM (inactive)
3,O=C(NCc1ccc(N2CCCC2=O)cc1)Nc1ccccc1,> 260 µM (inactive)
4,Cc1ccc(CN2CCN(/N=C/c3ccc(C)s3)CC2)c(C)c1,> 260 µM (inactive)

# Target: FAD-linked sulfhydryl oxidase ALR (Homo sapiens, UniProt P55789)
# Sequence (P55789 whole entry): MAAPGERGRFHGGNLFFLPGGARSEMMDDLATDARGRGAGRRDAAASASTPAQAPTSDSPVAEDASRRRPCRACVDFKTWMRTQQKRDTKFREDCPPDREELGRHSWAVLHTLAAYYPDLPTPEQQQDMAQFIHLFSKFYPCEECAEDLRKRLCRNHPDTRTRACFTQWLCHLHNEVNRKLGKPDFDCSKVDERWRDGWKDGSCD
# Test: inhibitors of human ALR sulfhydryl oxidase, dose response, biochemical, H2O2 detection, luminescence, cherry-pick (AID 493248)
# Settings: not given
row,Compound,AC50
1,CC(C)(C)n1nnnc1C(c1ccncc1)N1CCN(c2ccc(O)cc2)CC1 (centres undefined),3.48 µM (active)

# Tested on: not listed separately
# Test: cells
# Format: functional
# Settings: not given
row,Compound,IC50
1,CCOC(=O)COc1ccc(C2CC(C)=NN2c2ccccc2)cc1 (centres undefined),4.31 µM (active)
2,CN1CCC(O)(c2ccccc2)C(C(=O)c2ccccc2)C1 (centres undefined),36.1 µM (active)
3,CCC(=O)c1ccc(OCC(=O)OCC(=O)c2cc(C)n(C3CC3)c2C)cc1,9.8 µM (active)
4,COC(=O)CC(=O)N1CCN(c2ccc(Cl)c(Cl)c2)CC1,25.5 µM (active)
5,COc1cc(OC)cc(OC(=O)c2ccc3c(=O)n4c(nc3c2)CCC4)c1,9.14 µM (active)

# Target: T2, Replicative DNA helicase DnaB (Mycobacterium tuberculosis, UniProt P9WMR3)
# T2 sequence (P9WMR3 whole entry): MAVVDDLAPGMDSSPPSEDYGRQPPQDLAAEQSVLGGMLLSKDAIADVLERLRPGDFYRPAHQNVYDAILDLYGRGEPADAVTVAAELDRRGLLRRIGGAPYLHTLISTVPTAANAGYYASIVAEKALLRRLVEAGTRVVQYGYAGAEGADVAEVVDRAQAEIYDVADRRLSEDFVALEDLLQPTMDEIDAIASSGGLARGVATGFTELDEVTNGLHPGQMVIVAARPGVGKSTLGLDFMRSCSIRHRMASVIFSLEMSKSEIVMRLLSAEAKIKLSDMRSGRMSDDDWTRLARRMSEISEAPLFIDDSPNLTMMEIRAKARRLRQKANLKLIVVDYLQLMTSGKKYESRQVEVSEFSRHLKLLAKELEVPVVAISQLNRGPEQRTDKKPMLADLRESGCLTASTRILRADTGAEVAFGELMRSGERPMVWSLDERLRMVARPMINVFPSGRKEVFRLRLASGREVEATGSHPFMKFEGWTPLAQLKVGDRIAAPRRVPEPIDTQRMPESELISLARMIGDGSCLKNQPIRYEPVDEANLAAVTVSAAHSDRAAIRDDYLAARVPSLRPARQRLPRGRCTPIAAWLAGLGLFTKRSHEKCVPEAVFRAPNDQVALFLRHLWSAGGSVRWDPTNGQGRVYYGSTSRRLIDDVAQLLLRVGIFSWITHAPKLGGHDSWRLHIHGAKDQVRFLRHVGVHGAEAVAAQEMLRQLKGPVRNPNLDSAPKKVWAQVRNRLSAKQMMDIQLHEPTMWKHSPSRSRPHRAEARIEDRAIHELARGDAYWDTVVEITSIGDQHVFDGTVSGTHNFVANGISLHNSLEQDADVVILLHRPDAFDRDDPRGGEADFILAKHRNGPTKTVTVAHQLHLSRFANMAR
# Test: DnaB intein splicing inhibitors, dose response, biochemical, cell-free fluorescence (AID 449749)
# Format: functional
# Settings: not given
row,Compound,AC50
1,Cc1ccc(S(=O)(=O)Cc2cc(F)c([N+](=O)[O-])cc2[N+](=O)[O-])cc1,16.6 µM (active)

# Target: T3, Protein RecA (Mycobacterium tuberculosis, UniProt P9WHJ3)
# T3 sequence (P9WHJ3 whole entry): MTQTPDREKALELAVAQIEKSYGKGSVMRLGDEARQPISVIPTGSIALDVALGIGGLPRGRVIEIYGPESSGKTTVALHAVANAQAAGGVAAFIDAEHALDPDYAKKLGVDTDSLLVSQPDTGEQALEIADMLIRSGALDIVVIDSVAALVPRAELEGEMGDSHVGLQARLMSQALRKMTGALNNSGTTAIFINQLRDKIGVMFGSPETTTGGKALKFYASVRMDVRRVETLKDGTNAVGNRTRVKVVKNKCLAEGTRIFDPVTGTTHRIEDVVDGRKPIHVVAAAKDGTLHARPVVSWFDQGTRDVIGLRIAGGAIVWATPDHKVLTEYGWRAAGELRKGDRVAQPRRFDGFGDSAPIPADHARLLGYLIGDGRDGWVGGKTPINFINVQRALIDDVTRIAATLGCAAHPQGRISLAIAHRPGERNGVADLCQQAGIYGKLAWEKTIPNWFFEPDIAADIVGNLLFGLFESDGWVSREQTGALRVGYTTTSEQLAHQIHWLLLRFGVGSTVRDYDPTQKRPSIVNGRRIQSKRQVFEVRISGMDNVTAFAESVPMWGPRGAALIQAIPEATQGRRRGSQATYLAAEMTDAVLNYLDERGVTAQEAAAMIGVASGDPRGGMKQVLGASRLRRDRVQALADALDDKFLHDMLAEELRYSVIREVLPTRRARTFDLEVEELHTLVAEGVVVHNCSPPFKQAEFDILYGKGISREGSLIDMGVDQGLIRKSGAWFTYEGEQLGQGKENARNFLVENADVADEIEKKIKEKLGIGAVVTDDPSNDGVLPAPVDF
# Test: Fluorescence Cell-Free Homogeneous Dose Retest to Identify Inhibitors of RecA-Intein Splicing Activity. [Related pubchem assays (depositor defined):AID2097, AID2223, AID489010, AID492950]
# Format: functional
# Settings: not given
row,Compound,EC50
1,Cc1ccc(S(=O)(=O)Cc2cc(F)c([N+](=O)[O-])cc2[N+](=O)[O-])cc1,17.2 µM (active)

# Target: T4, Protein skinhead-1 (Caenorhabditis elegans, UniProt P34707)
# T4 sequence (P34707 whole entry): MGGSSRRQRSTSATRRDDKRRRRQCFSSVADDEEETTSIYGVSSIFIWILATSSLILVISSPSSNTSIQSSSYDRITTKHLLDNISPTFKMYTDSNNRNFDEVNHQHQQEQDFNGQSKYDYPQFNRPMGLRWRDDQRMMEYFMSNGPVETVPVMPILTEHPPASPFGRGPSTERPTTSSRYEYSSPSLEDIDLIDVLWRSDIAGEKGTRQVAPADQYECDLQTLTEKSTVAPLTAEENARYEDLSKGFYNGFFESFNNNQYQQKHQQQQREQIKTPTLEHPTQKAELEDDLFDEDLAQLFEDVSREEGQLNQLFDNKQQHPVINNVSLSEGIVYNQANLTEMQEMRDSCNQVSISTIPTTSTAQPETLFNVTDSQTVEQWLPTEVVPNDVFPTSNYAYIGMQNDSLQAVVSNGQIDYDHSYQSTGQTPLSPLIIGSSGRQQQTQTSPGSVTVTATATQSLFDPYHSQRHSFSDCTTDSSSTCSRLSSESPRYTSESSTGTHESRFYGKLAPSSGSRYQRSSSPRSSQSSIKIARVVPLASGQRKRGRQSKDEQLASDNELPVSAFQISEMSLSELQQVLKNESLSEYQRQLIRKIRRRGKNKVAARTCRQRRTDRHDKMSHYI
# Test: not given
# Format: functional
# Settings: not given
row,Compound,IC50
1,O=C(c1ccccc1)c1cnc2cc3c(cc2c1O)OCCO3,> 100 µM (inactive)
2,c1cc2c(nn1)CCc1nonc1-2,> 100 µM (inactive)
3,CCN(C(=O)c1ccco1)c1nc(-c2ccc(OC)cc2)cs1,> 100 µM (inactive)
4,CN1CCN(c2ccc(NC(=O)c3ccc(Oc4ccccc4)cc3)cc2)CC1,23.6 µM (active)
5,Cc1ccc2c([N+](=O)[O-])c(C)ccc2n1,> 100 µM (inactive)
6,O=C(NCCN1C(=O)C2C3C=CC(C3)C2C1=O)Nc1ccccc1O (centres undefined),> 100 µM (inactive)
7,CC1CN(C(=O)c2cccs2)CCN1C(=O)c1cccs1 (centres undefined),> 100 µM (inactive)
8,CCOc1ccc(OCC)c(NC(=O)CSCC(=O)O)c1,> 100 µM (inactive)
9,O=C(NCCO)c1cccc(-c2ccc3nncn3c2)c1,> 100 µM (inactive)

# Target: T5, Rac GTPase-activating protein 1 (Homo sapiens, UniProt Q9H0H5)
# T5 sequence (Q9H0H5 whole entry): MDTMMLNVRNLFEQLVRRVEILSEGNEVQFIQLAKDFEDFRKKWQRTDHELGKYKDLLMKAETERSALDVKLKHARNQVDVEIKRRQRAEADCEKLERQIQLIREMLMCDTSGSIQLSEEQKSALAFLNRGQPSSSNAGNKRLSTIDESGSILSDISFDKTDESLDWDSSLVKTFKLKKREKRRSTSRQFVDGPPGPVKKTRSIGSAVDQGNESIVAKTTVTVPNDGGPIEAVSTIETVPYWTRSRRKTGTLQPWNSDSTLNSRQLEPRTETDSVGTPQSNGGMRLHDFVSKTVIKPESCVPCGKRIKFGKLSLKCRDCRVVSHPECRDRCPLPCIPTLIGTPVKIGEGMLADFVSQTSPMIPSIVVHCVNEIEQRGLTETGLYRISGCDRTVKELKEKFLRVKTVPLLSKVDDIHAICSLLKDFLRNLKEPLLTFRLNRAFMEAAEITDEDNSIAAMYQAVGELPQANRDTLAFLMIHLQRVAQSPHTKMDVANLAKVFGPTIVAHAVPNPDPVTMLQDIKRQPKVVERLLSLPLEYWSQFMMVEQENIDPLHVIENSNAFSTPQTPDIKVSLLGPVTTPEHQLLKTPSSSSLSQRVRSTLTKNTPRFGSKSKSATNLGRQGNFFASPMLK
# Test: MgcRacGAP GTPase-activating activity inhibitors, confirmation, biochemical, ADP Hunter fluorescence, primary and confirmatory (AID 624330)
# Format: functional
# Settings: not given
row,Compound,IC50
1,COc1cc(/C=N/Nc2nc(N3CCCC3)nc(N3CCCC3)n2)ccc1O,64.3 µM (active)

# Tested on: not listed separately
# Test: P. falciparum Dd2 growth inhibitors, dose response, SYBR Green, cherry-picked samples (AID 1159567)
# Format: functional, cell-based
# Settings: not given
row,Compound,AC50
1,CCCNC(=O)Nc1ccc2c(c1)OC[C@@H](C)N(CC1CCCC1)C[C@@H](C)[C@H](OC)CN(C)C2=O,6.1 µM (active)
2,CCCC(=O)N1CCC2(CC1)CN(Cc1ccncc1)[C@@H](CO)c1[nH]c3cc(OC)ccc3c12,7.29 µM (active)
3,O=C(C1CCCC1)N1CC[C@@H]2[C@H](CO)Nc3ccc(Br)cc3[C@@H]21,12.7 µM (active)
4,C[C@@H]1CN([C@@H](C)CO)C(=O)c2cc(C#Cc3ccccc3)cnc2O[C@H]1CN(C)C(=O)CCN1CCCCC1,3.03 µM (active)
5,COc1ccc2c3c(n(C)c2c1)[C@@H](CO)N(C(=O)Nc1ccc(F)cc1)CC31CN(C(=O)c2ccc3c(c2)OCO3)C1,5.67 µM (active)
